Legend:
[1] = test system: freshly isolated murine splenocytes; assay: CellTiter-Glo cell viability, primary splenocytes; format: cell-based
Method: BzFβ was then examined for its effect on the viability of several murine and human cell lines and primary murine splenocytes. The cytotoxicity of BzFβ was assessed using the CellTiter-Glo […] assay system according to manufacturer's instructions to determine BzFβ's effect on the viability of several murine and human cell lines and primary murine splenocytes.
Six- to ten-week-old female C57BL/6NCrl mice (Charles River Laboratories, Wilmington, MA; cat. no. 027) were maintained in accord with the NIH Guide for the Care and Use of Laboratory Animals. Mice were maintained in an INOVIVE individually ventilated cage system with 3 mice per cage containing 100% virgin wood pulp bedding (Harlan Teklad™, Inotiv Inc., West Lafayette, IN; cat. no. 7099). Water and food (Harlan Teklad™, Inotiv Inc., West Lafayette, IN; cat. no. 8640) were available ad libitum. […] The cell count was determined using the MUSE cell viability kit (MCH600103) and MUSE Cell Analyzer (Luminex Corp, Austin TX). […]
The cytotoxicity of BzFβ was assessed using the CellTiter-Glo cell […] viability assay system […] cat. no. […] CellTiter-Glo was added 1:1 in the media and the level of chemiluminescence was measured using luminescence at wavelengths of 200 nm to 700 nm through a photomultiplier on BioTek's Synergy HTX multimode microplate reader. […]

[2] = target: T1, MHC class I/SIINFEKL complex on IMG cells (Mus musculus, UniProt P01901); assay: SIINFEKL binding to IMG cells, flow cytometry with 25-D1.16 antibody; format: cell-based, murine; conditions: 25 μg/mL BzFβ 0-4 h
T1 construct: host or cells: IMG cell line
Method: (§1) By using an MHC class I H-2K^b specific antibody, a relative comparison of the surface MHC class I was measured before and after BzFβ treatment of DC2.4 and IMG cells. These cells were treated with 25 μg/mL BzFβ for 0-4 h. Cells were centrifuged and washed using cold FACS buffer (DPBS with 5% FBS, 2 mM EDTA, 0.1% sodium azide). Cells were blocked with Fc block (bioLegend™; cat. no. 101320) for 10 min to 15 min to inhibit non-specific binding, followed by staining with fluorophore-conjugated antibodies; one set of cells was stained with the PE-labeled MHC/SIINFEKL specific antibody (clone 25-D1.16, Invitrogen™, Thermo Fisher Scientific Inc., Waltham, MA; cat. no. 12-5743-82), and the other set was stained with the PE-labeled MHC class I H-2Kb specific antibody (AF6-88.5.5.3,Invitrogen™, Thermo Fisher Scientific Inc., Waltham, MA; cat. no. 12-5958-82) […], for 30 min at 4° C. After washing, the cells were subjected to flow cytometric analysis with the Attune NxT Flow Cytometer (Invitrogen). Cells were gated based on live single-cell populations and positives were assessed using isotype controls and fluor-minus-one analysis when needed. Data were analyzed using the Attune NxT software or FlowJo versions 10.7 and 10.8.

[3] = test system: MHC class I H-2Kb on DC2.4; assay: Surface MHC class I H-2Kb on DC2.4 (AF6-88.5.5.3 flow cytometry); format: cell-based, murine; conditions: DC2.4, 25 μg/mL
Method: as §1, with “These cells were treated with 25 μg/mL BzFβ for 0-4 h.” left out

[4] = target: T2, H-2Kb/SIINFEKL complex on DC2.4 (Mus musculus, UniProt P01901); assay: BFA decay experiment (SIINFEKL off-rate) on DC2.4; format: cell-based, murine; conditions: 24 h pre-treatment, 1 h 30 nM SIINFEKL
T2 construct: DC2.4 are a C57Bl/6 lineage murine cell line and as such they express MHC class I H-2Kb and H-2Db; endogenous in cells; host or cells: DC2.4 (murine dendritic cell line, from Dr. Kenneth Rock)
T2 sequence (P01901 22-369): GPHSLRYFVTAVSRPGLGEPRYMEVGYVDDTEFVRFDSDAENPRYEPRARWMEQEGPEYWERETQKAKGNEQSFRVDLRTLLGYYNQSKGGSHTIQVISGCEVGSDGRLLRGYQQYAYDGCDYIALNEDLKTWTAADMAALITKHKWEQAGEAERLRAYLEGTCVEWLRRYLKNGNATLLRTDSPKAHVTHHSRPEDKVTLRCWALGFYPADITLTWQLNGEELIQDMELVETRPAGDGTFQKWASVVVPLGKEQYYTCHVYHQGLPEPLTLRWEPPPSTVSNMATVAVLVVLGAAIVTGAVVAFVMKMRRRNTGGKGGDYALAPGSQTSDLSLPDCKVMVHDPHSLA
T2 sequence (P01887 21-119 partner): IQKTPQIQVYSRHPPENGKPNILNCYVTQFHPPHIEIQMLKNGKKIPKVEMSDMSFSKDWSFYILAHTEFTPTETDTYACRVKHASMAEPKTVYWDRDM

T1 sequence (P01901 22-369): as the sequence (P01901 22-369) above
T1 sequence (P01887 21-119 partner): as the sequence (P01887 21-119 partner) above

Question: Which IC50 ([1]; Mus musculus, Splenocyte, freshly isolated murine splenocytes, CellTiter-Glo) does the source give for `O=C(O)/C=C/c1ccc2occc2c1` [BzFβ, (2E)-3-(1-benzofuran-5-yl)prop-2-enoic acid] here?
Answer: 402 µM

Question: What about the “viability of primary murine splenocytes” value ([1]; concentrations below 50 µg/mL) of the same compound?
Answer: minimally affected

Question: What about the “binding of SIINFEKL to surface MHC class I” value [2] of the same compound?
Answer: able to enhance the binding of SIINFEKL

Question: And the “overall surface expression (MFI) of MHC class I” value ([3]; 1-4 h)?
Answer: no significant effect

Question: What about the “overall surface expression (MFI) of MHC class I” value ([3]; 24 h) of the same compound?
Answer: significant increase

Question: What about the “decay rate of SIINFEKL / stability of H-2Kb/SIINFEKL complex” value [4] of the same compound?
Answer: did not affect the decay rate of SIINFEKL

From US20250381165A1, “Method of Use for Benzofuran Compounds” (Tampa Bay Research Institute, Inc., priority 2024, published 2025)
